Measured values: patent publication US20040175691A1, “Use of the KCNQ2 and KCNQ3 genes for the discovery of agents useful in the treatment of neurological disorders” (priority 1998, published 2004)
Read-outs that look alike come from different tables or passages of the source.

Experiments:
M-current [1] = target: T1, M-current (Rattus norvegicus, UniProt O88943+O88944); test: Blockade of native M-current in SCG neurons (voltage clamp, intact ganglia); assay type: cell-based; conditions: native M-current, SCG neurons; mean±s.e.m.
T1 construct: from tissue
Description: (§1) Method: Recordings of the M-current in sympathetic neurons in intact ganglia were performed at room temperature as described previously (Wang and McKinnon, 1995). The standard extracellular recording solution was: NaCl (133 mM, KCl (4.7 mM), NaH2PO4 (1.3 mM), NaHCO3 (16.3 mM), CaCl2 (2 mM), MgCl2 (1.2 mM) and glucose (1.4 g/liter), bubbled with 95% O2-5% CO2 to give pH 7.2-7.4.
A. Blockade of M-current in SCG neurons by XE991. Holding potential was −30 mV and step potential was −50 mV for 1 second. The shift in holding current following drug application is due to the inhibition of M-current activated at the holding potential.
Maximal block of native M-current was 93±2%. Data points are averages and error bars represent s.e.m.

erg1 = target: T2, erg1 (Rattus norvegicus, UniProt O08962); test: Blockade of cloned erg1 channel in oocytes; assay type: cell-based; conditions: mean±s.e.m.
T2 construct: expressed in transfected cells; host or cells: oocytes (Xenopus)
T2 sequence (O08962 1-1163): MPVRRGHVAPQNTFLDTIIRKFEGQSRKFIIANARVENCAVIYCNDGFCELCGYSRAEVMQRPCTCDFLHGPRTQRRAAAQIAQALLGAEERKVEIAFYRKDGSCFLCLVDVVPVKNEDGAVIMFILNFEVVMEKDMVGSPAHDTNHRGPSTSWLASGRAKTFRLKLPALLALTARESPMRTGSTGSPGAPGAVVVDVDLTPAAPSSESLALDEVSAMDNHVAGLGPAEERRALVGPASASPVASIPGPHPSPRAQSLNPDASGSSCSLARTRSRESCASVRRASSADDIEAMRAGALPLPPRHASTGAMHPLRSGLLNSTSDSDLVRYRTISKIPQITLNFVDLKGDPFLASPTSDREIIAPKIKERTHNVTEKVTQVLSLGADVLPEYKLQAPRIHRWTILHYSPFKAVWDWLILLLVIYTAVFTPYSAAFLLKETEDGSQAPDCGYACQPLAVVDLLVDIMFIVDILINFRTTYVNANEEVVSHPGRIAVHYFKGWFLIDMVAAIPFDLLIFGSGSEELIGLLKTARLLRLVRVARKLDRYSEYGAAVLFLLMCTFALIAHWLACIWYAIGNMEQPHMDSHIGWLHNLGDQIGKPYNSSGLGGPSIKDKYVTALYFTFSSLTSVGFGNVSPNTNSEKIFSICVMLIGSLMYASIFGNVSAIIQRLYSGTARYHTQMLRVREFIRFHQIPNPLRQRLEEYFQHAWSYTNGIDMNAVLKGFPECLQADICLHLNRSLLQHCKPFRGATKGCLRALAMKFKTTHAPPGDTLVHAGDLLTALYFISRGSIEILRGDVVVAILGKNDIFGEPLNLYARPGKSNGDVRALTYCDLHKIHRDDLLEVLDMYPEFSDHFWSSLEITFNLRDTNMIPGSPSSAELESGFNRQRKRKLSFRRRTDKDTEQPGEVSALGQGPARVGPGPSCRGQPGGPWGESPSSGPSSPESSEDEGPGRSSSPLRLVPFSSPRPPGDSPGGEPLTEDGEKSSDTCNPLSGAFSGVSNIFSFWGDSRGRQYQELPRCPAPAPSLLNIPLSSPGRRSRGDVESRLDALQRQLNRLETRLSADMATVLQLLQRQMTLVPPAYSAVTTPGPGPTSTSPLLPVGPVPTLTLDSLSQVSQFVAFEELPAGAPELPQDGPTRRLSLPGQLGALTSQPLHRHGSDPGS

[2] = tested on: phasic sympathetic neurons; test: Firing properties of phasic sympathetic neurons from the SCG; assay type: cell-based, rat; conditions: 10 μM
Description: as §1

hKCNQ2 potassium channel = target: T3, hKCNQ2 potassium channel (Homo sapiens, UniProt O43526, DEL417-446); test: Membrane potential-evoked fluorescence (FLIPR, DiBAC) in HEK 293E cells stably expressing hKCNQ2; assay type: cell-based; conditions: DiBAC-loaded HEK 293E hKCNQ2 cells, FIG. 6
T3 construct: Full-length hKCNQ2 cDNAs were amplified from adult human brain cDNA; expressed in transfected cells; host or cells: 293 EBNA (HEK 293E) cells, episomal plasmid pm3AR-hKCNQ2-1, hygromycin B selection
Description: The ability of KCNQ2 modulators to alter membrane potential was assessed using a fluorescence imaging plate reader (FLIPR). Cultured HEK 293E cells expressing hKCNQ2 channels are plated on poly-D-lysine-coated 96-well Costar microplates (#3603) at 300,000-750,000 cells/ml and allowed to reach confluence in DMEM (with 10% FBS and 250 ug/ml hygromycin B) at 37° C. and 5% CO2. After reaching confluence, growth medium is removed, replaced with a standard Hank's balanced salt solution containing 5 uM dibac(4)3, bis-oxonol (Molecular Probes # B-438) at 37° C. The cell plate is then placed in the recording chamber (equilibrated to 37° C.) of a fluorescence imaging plate reader (FLIPR; Molecular Devices) along with two drug plates (one containing standard Hank's balanced salt solution+dibac and the other containing standard Hank's balanced salt solution+dibac+test compound at various experimental concentrations).
These cells were loaded with the voltage-sensitive fluorescent dye, DiBAC, that distributes across cell membranes in a voltage-dependent manner. As cells depolarize (become more positive inside), more dye enters the cells and an increase in fluorescence occurs.
In FIG. 7, the relative effects of several M-current modulators on the flourescence of HEK 293E cells stably expressing the hKCNQ2 potassium channel is shown. These cells were loaded with the voltage-sensitive fluorescent dye, DiBAC, that distributes across cell membranes in a voltage-dependent manner. As cells depolarize, more dye enters the cells and an increase in fluorescence occurs. Conversely, as cells hyperpolarize (become more negative inside), more dye leaves the cells and a decrease in fluorescence occurs.

M-current [3] = target: T1, M-current; conditions: data adapted from Costa and Brown; read-out: IC50 for blockade of M-current; cited from earlier work

IC50 (M-current [1]) [µM]	IC50 (erg1) [µM]	SMILES	Effect on firing properties of phasic neurons [2]	Change in fluorescence (membrane depolarization) (hKCNQ2 potassium channel)	IC50 (M-current [3]) [µM]
0.98 ± 0.15	> 100	O=C1c2ccccc2C(Cc2ccncc2)(Cc2ccncc2)c2ccccc21 [XE991, 10,10-bis(4-pyridinylmethyl)-9(10H)-anthracenone]	converts the firing properties from phasic to tonic		
	53 ± 4	O=C1N(c2ccccc2)c2ccccc2C1(Cc1ccncc1)Cc1ccncc1 [Linopirdine, 3,3-bis(4-pyridinylmethyl)-1-phenylindolin-2-one]		time- and concentration-dependent increase in flourescence	7 ± 1.1
